According to patent US20190160089A1, “COMBINATION TREATMENT WITH ANTIBODY-DRUG CONJUGATES AND CYTARABINE” (IMMUNOGEN, INC., priority 2017, published 2019):

What was measured:
[1] = system: Molm-13 cells, a human AML cell line; experiment: In vivo efficacy in Molm-13 disseminated xenograft model; design: species or system mice; conditions: cytarabine alone 75 mg/kg QD×5 days 7-11
Procedure: (§1) The measured end-point was survival. […] Spontaneous deaths were recorded when they were discovered. For disseminated models, Tumor Growth Delay is calculated as T−C, where T is the median survival time (in days) of a treated group and C is the median survival time (in days) of the vehicle control group. The Percent Increased Life Span (% ILS) for disseminated models is calculated using the following formula: % ILS=(T−C)/C×100%.
The cyclophosphamide (Sigma, C0768, Lot # MKBX1822V) was dissolved in 0.9% NaCl and was administered intraperitoneally to the mice on day −2 prior to Molm-13 cell inoculation on day 0.
Following cyclophosphamide treatment as described above, the mice were each injected intravenously in the lateral tail vein with 2×10^5 Molm-13 cells, a human AML cell line, in 100 μl of serum-free medium on day 0 in the study.
Cytarabine, in contrast, was given once a day (QD) at a dose of 75 mg/kg for five consecutive days (×5) and always on a fixed set of days in the study time line: Days 7, 8, 9, 10 and 11.
The results are represented in Table 5 (below) and in FIG. 3.

[2] = system: MOLM-13; experiment: In vitro CD33 expression post-treatment with cytarabine (flow cytometry, PE anti-CD33); assay type: cell-based, human; conditions: cytarabine 400 nM, 15, 24, 39, 48 hours post-treatment
Procedure: (§2) CD33 expression was assessed post-treatment with cytarabine. In these experiments, two AML cell lines with cell surface display of CD33 and cytarabine sensitivity were used: MV4-11 and MOLM-13. The potency-relative doses were chosen for each treatment, relative to IC50s generated from 96-hour cytotoxicity assays. […] Time points at 15 hours, 24 hours, 39 hours, and 48 hours post-treatment with cytarabine were chosen for cell surface CD33 assessment. Cells were stained with, then washed of excess, PE-conjugated anti-CD33 mAb. Flow cytometric analyses of PE MFI were run on a FACSCanto II flow cytometer. PE-MFIs at each timepoint were normalized to PE-MFIs of untreated control samples and normalized PE-MFIs were considered to represent relative fold-changes in surface CD33 binding sites.

[3] = system: MV4-11; experiment: as above; assay type: cell-based, human; conditions: cytarabine 2,500 nM, 15, 24, 39, 48 hours post-treatment
Procedure: as §2

[4] = system: EOL-1 cells, a human AML cell line; experiment: In vivo efficacy in EOL-1 subcutaneous xenograft model; conditions: EOL-1 sc xenograft; IMGN779 5 μg/kg day 10; cytarabine 75 mg/kg days 10-14; text: long-term CRs on day 90
Procedure: The mice were weighed twice a week and were monitored for clinical signs throughout the duration of the study. Animals were euthanized when hind leg paralysis was present, body weight decreased by >20% of pre-treatment weight, tumor ulceration occurred, or when any signs of distress were visible. Tumor volumes were measured one to two times weekly in three dimensions using a caliper. […] Tumor Growth Inhibition (T/C Value) was also assessed using the following formula: T/C (%)=(Median tumor volume of the treated/Median tumor volume of the control)×100%. Tumor volume was determined simultaneously for the treated (T) and the vehicle control (C) groups when tumor volume of the vehicle control reached a predetermined size (Bissery et al., Cancer Res. 51: 4845-52 (1991). The daily median tumor volume of each treated group was determined, including tumor-free mice (0 mm^3). According to NCI standards, a T/C≤42% is the minimum level of anti-tumor activity. A T/C<10% is considered a high anti-tumor activity level.
Female athymic nude mice were each inoculated with 1×10^7 EOL-1 cells, a human AML cell line, in 100 μl serum free medium subcutaneously in the right flank. […]

[5] = system: MV4-11 cells, a human AML cell line; experiment: In vivo efficacy in MV4-11 disseminated xenograft model; design: species or system mice; conditions: cytarabine alone 75 mg/kg QD×5 days 24-28
Procedure: as §1
The cyclophosphamide (Sigma, C0768, Lot # MKBX1822V) was dissolved in 0.9% NaCl and was administered intraperitoneally to the mice on day −3 and day −2 prior to MV4-11 cell inoculation.
Following cyclophosphamide treatment as described above, the mice were each injected intravenously in the lateral tail vein with 3×10^6 MV4-11 cells, a human AML cell line, in 100 μl of serum-free medium on day 0 in the study.
Cytarabine was given once a day (QD) at a dose of 75 mg/kg for five consecutive days (×5) and always administered on the same fixed set of days in the study time line: days 24, 25, 26, 27 and 28.
Lastly, Group K received QW×3 dosing of 1 μg/kg by DGN462 (0.0556 mg/kg by antibody) of a non-targeted control conjugate, Ab-DGN462, on a day 21, 28 and 35 dosing schedule (“Day 21”, with FcR blocking).

[6] = biological target: CD33 (Homo sapiens, UniProt P20138); conditions: CD33 on the surface of CD33-positive cells; cited from earlier work
CD33, sequence (P20138 18-364): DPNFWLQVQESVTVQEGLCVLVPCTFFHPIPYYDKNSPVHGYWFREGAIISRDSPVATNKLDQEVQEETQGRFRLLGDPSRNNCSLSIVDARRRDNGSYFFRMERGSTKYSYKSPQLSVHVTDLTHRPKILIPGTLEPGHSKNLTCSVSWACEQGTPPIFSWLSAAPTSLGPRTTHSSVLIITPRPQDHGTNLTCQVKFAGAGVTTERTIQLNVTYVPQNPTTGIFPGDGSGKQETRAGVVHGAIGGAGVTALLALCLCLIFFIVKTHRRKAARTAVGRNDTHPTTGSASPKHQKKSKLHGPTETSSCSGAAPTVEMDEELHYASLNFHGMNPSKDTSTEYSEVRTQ

Nc1ccn([C@@H]2O[C@H](CO)[C@@H](O)[C@@H]2O)c(=O)n1 [Cytarabine, cytosine arabinoside]
Median Survival Time ([1]; NOD SCID mice): 20 days | % Increased Life Span (ILS) [1]: 0% | Result [1]: Inactive | Tumor Growth Delay (T-C, Days) [1]: 0 days | CD33 transcription and cell surface expression [2]: dose- and time-dependent increase | CD33 transcription and cell surface expression [3]: dose- and time-dependent increase | Tumor Free Survivors (Day 90) [4]: 0/6 | Median Survival Time ([5]; NOD SCID mice): 46 days | % Increased Life Span (ILS) [5]: 0% | Result [5]: Inactive | Tumor Growth Delay (T-C, Days) [5]: 0 days

My9-6: murine anti-CD33 antibody from which huMy9-6 is derived
binding affinity to CD33 [6]: high affinity
